This experiment relates to human breast cancer cell line MCF7. The experiment in a line: Efficacy of the compounds on the survival of tumor cells (cytotoxic effect, cell-titer Glo luminescence). In kind it is cell-based. To be noted: 48 hours incubation with compound (2.4 nM to 10,000 nM), inhibition of cell survival. As to the method:
The effect of the compounds on the survival of the human breast cancer cell line MCF7 was measured.
The cell line was analyzed at 37° C. [98.6° F.], 95% humidity and 5% CO2 in RPMI Medium (Cambrex).
The cells are inoculated in a 96-well microtiter plate (Costar) at an initial density of 2400 cells per well and cultivated for 24 hours.
The compounds are dissolved in DMSO, diluted with cell medium and added to the wells.
The cells are incubated for another 48 hours at a concentration of the compounds between 2.4 nM and 10,000 nM at a volume of 50 μl.
50 μl of cell-titer Glo (Promega) are added to each well and the microtiter plate is incubated for 2 minutes at room temperature on a shaker and then left standing in the dark for 10 minutes.
The luminescence is measured with a microplate reader and is proportional to the number of surviving cells. The percentage of inhibition of the cell survival is calculated in comparison to (i) without cells and with compound (100% inhibition) and (ii) with cells and without compound (no inhibition).
The concentration of the half-maximum inhibition (IC50) is determined with GraphPad Prism (GraphPad Software), whereby the controls are 0% and 100%.

A word on the IC50: it is the concentration that inhibits the measured activity by half.

Take `C/C=C/C=C/c1cc2c(Br)c3c(c(O)c2c(=O)[nH]1)[C@]1(CC3)C(=O)c2c(O)c3c(c(O)c2C1=O)C(=O)C(NC)=C(Br)C3=O` [Compound 7, (8S)-4′,9,9′-trihydroxy-5,7′-dibromo-6′-methylamino-3-[(1E,3E)-penta-1,3-dienyl]-6,7-dihydrospiro[cyclopenta[g]-isoquinoline-8,2′-cyclopenta[b]-naphthalene]-1,1′-3′,5′,8′(2H)-pentone]: the IC50 was 0.19 µM. On the same count and under the same terms, next, `C/C=C/C=C/c1cc2c(CN(C)C)c3c(c(O)c2c(=O)[nH]1)[C@@]1(CC3)C(=O)c2c(O)c3c(c(O)c2C1=O)C(=O)C(NC)=CC3=O` [Compound 7a, (8S)-4′,9,9′-trihydroxy-5-dimethylaminomethyl-6′-methylamine-3-[(1E,3E)-penta-1,3-dienyl]-6,7-dihydrospiro[cyclopenta[g]-isoquinoline-8,2′-cyclopenta[b]-naphthalene]-1,1′-3′,5′,8′(2H)-pentone]: 0.66 µM. The same measure, in the same setting: next, `C/C=C/C=C/c1cc2c(Br)c3c(c(O)c2c(=O)[nH]1)[C@]1(CC3)C(=O)c2c(O)c3c(c(O)c2C1=O)C(=O)C(N1CCOCC1)=C(Br)C3=O` [Compound 9, (BS)-4′,9,9′-trihydroxy-5,7′-dibromo-6′-morpholino-3-[(1E,3E)-penta-1,3-dienyl]-6,7-dihydrospiro[cyclopenta[g]-isoquinoline-8,2′-cyclopenta[b]-naphthalene]-1,1′-3′,5′,8′(2H)-pentone]: 0.67 µM. Turning to `CON=Cc1cc2c(Br)c3c(c(O)c2c(=O)[nH]1)[C@]1(CC3)C(=O)c2c(O)c3c(c(O)c2C1=O)C(=O)C(N(C)C)=C(Br)C3=O` [Compound 13, (8S)-4′,9,9′-trihydroxy-5,7′-dibromo-6′-dimethylamino-1,1′,3′,5′,8′-pentaoxo-1,1′,2,3′,5′,6,7,8′-octahydrospiro-[cyclopenta[g]-isoquinoline-8,2′-cyclopenta[b]naphthalene]-3-carbaldehyde-O-methyloxime], the concentration for half-maximal inhibition (IC50) (Homo sapiens) amounted to 0.3 µM. Regarding “(8S)-4,9,9′-trihydroxy-5,7′-dibromo-6′-cyclopropylamino-1,1′,3′,5′,8′-pentaoxo-1,1′,2,3′,5′,6,7,8′-octahydrospiro-[cyclopenta[g]-isoquinoline-8,2′-cyclopenta[b]naphthalene]-3-carbaldehyde-O-methyloxime [Compound 12]”, the half-inhibitory concentration (IC50) is 0.38 µM.

The record behind these values is patent US20080318942A1, “Fredericamycin Derivatives” (BIOAGENCY AG, priority 2005, published 2008).
